SMILES strings stand for the structures.

This experiment has as its target Human immunodeficiency virus type 1 protease (Human immunodeficiency virus 1, UniProt Q72874). In words: Compound was tested for inhibitory activity against Human immunodeficiency virus (HIV-1) protease.
In general, IC50 refers to the concentration at which inhibition is half-maximal. Higher therefore signals a need for much substance. For `C[C@@H]1CC[C@@H](O)[C@H]1N1CC[C@@](Cc2ccccc2)(C[C@H](O)[C@H](Cc2ccccc2)NC(=O)OC(C)(C)C)C1=O`, the IC50 was found to be 14 nM.
The figure for `CC(C)(C)OC(=O)N[C@@H](Cc1ccccc1)[C@@H](O)C[C@]1(Cc2ccccc2)CCN([C@@H]2CS(=O)(=O)Cc3ccccc32)C1=O` is 17 nM; for `CC(C)[C@@H](CO)N1CC[C@@](Cc2ccccc2)(C[C@H](O)[C@H](Cc2ccccc2)NC(=O)OC(C)(C)C)C1=O` it is 35 nM; for `O=C(N[C@@H](Cc1ccccc1)[C@@H](O)C[C@@H](Cc1ccccc1)C(=O)N[C@H]1c2ccccc2C[C@H]1O)O[C@H]1CCOC1` it is 0.06 nM.
`CC(C)(C)OC(=O)N[C@@H](Cc1ccccc1)[C@@H](O)C[C@]1(Cc2ccccc2)CCN([C@@H]2CSCc3ccccc32)C1=O` returned an IC50 of 111 nM.
With `O=C(N[C@@H](Cc1ccccc1)[C@@H](O)C[C@]1(Cc2ccccc2)CCN([C@@H]2CS(=O)(=O)Cc3ccccc32)C1=O)O[C@H]1CCOC1` the figure was 1.8 nM.
Regarding `CC(C)(C)OC(=O)N[C@@H](Cc1ccccc1)[C@@H](O)CC1(Cc2ccccc2)CCN([C@H]2c3ccccc3C[C@H]2O)C1=O` (single isomer, unassigned), it took 37 nM to reach half-maximal inhibition (IC50).

Source of the values: ChEMBL document CHEMBL1127242, “Conformationally constrained HIV-1 protease inhibitors” (Bioorg Med Chem Lett, 1994).
